Results reported in patent US8809331B2 (Genentech, Inc., priority 2011, dated 2014).

Target: T1, LRRK2 (Homo sapiens, UniProt Q5S007, G2019S)
T1 construct: purchased Invitrogen PV4882
Experiment: In Vitro LRRK2 LabChip Assay (LRRK2 Ki)
Assay type: biochemical
Conditions: Table 5 compounds (formula I)
Protocol: In Vitro LRRK2 LabChip Assay
This assay was used to determine a compound's potency in inhibiting activity of LRRK2 by determining, Kiapp, IC50, or percent inhibition values. In a polypropylene plate, LRRK2, fluorescently-labeled peptide substrate, ATP and test compound were incubated together. Using a LabChip 3000 (Caliper Life Sciences), after the reaction the substrate was separated by capillary electrophoresis into two populations: phosphorylated and unphosphorylated. The relative amounts of each were quantitated by fluorescence intensity. LRRK2 Ki was determined according to the equation: Y=V0*(1−((x+Ki*(1+S/Km)+Et)/(2*Et)−(((x+Ki*(1+S/Km)+Et)^2−(4*Et*x))^0.5)/(2*Et))). Ki values in Table 4 and elsewhere herein are shown in μM.
Assay conditions and materials used were as follows:
LRRK2 Wild type in 5 mM MgCl2: 15 nM (Invitrogen lot #500607F)
Kinase reaction time: 2 hours
Wild type in 5 mM MgCl2: 80 μM
Solid Support: Black 50 μL volume polypropylene 384 well plate (MatriCal cat # MP101-1-PP)
Kinase: LRRK2 G2019S (Invitrogen cat #PV4882). • LRRK2 Wild type (Invitrogen cat #PV4874).
Substrate: 5FAM-[…]-CONH2
Non-binding plate: 384 well clear V-bottom polypropylene plates (Greiner cat #781280).
ATP: 10 mM ATP (Cell Signaling cat #9804).
Coating Reagent #3: Coating Reagent #3 (Caliper).
Complete Reaction Buffer: H2O/25 mM Tris, pH 8.0/5 mM MgCl2/2 mM DTT/0.01% Triton X-100.
Stop Solution: H2O/100 mM HEPES, pH 7.2/0.015% Brij-35/0.2% Coating Reagent #3/20 mM EDTA.
Separation Buffer: H2O/100 mM HEPES, pH 7.2/0.015% Brij-35/0.1% Coating Reagent #3/1:200 Coating Reagent #8/10 mM EDTA/5% DMSO.
Compound Plate Preparation:
For serial dilutions, 34.6 μl DMSO was added to columns 3-24. For the assay controls, 37.5 μl DMSO was added to columns 1 and 2 of rows A and P. a, d and 50 μl 25 μM G-028831 (Staurosporine) was added to columns 1 and 2, row B. For the samples: to start at 100 μM, 37.5 μl DMSO was to columns 1 and 2, then 12.5 μl 10 mM compound; to start at 10 μM, 78 μl DMSO was added to columns 1 & 2, then 2 μl 10 mM compound; and to start at 1 μM, 25 μM compound (2 μl 10 mM cmpd+798 μl DMSO) was added to empty columns 1 and 2. A Precision instrument was used to perform 1:3.16 serial dilutions (“PLK_BM_serial_halflog”).
ATP was diluted to 282.1 μM in Complete Kinase Buffer (final concentration was 130 μM).
Total and Blank Preparation:
In Complete Reaction Buffer, substrate was diluted to 4 μM. Equal volumes of Complete Reaction Buffer and 4 μM substrate were combined to obtain the blank. Equal volumes of Complete Reaction Buffer and 4 μM substrate were combined and to the combined solution was added 2× final LRRK2 concentration.
To a 50 μl polypropylene plate, 5 μl/well buffer/substrate was added by hand to Blank wells. A Biomek FX was used to start the kinase reaction (“PLK SAR 23 ATP”). The following were added to the appropriate wells:
5 μl/well compound/ATP in Assay Plate;
5 μl/well kinase/substrate in Assay Plate;
The plate was incubated for 2 hours in the dark. Biomek FX was used to stop the kinase reaction (“PLK Stop”), and 10 μl/well Stop solution was added to the Assay Plate. Results were read on the LabChip 3000.
The LabChip 3000 was run using the job “LRRK2 IC50” with the following job settings:
Downstream voltage: −500 V
Upstream voltage: −2350 V
Post sample buffer sip time: 75 seconds
Post dye buffer sip time: 75 seconds
Final delay time: 200 seconds

T1 sequence (Q5S007 whole entry G2019S): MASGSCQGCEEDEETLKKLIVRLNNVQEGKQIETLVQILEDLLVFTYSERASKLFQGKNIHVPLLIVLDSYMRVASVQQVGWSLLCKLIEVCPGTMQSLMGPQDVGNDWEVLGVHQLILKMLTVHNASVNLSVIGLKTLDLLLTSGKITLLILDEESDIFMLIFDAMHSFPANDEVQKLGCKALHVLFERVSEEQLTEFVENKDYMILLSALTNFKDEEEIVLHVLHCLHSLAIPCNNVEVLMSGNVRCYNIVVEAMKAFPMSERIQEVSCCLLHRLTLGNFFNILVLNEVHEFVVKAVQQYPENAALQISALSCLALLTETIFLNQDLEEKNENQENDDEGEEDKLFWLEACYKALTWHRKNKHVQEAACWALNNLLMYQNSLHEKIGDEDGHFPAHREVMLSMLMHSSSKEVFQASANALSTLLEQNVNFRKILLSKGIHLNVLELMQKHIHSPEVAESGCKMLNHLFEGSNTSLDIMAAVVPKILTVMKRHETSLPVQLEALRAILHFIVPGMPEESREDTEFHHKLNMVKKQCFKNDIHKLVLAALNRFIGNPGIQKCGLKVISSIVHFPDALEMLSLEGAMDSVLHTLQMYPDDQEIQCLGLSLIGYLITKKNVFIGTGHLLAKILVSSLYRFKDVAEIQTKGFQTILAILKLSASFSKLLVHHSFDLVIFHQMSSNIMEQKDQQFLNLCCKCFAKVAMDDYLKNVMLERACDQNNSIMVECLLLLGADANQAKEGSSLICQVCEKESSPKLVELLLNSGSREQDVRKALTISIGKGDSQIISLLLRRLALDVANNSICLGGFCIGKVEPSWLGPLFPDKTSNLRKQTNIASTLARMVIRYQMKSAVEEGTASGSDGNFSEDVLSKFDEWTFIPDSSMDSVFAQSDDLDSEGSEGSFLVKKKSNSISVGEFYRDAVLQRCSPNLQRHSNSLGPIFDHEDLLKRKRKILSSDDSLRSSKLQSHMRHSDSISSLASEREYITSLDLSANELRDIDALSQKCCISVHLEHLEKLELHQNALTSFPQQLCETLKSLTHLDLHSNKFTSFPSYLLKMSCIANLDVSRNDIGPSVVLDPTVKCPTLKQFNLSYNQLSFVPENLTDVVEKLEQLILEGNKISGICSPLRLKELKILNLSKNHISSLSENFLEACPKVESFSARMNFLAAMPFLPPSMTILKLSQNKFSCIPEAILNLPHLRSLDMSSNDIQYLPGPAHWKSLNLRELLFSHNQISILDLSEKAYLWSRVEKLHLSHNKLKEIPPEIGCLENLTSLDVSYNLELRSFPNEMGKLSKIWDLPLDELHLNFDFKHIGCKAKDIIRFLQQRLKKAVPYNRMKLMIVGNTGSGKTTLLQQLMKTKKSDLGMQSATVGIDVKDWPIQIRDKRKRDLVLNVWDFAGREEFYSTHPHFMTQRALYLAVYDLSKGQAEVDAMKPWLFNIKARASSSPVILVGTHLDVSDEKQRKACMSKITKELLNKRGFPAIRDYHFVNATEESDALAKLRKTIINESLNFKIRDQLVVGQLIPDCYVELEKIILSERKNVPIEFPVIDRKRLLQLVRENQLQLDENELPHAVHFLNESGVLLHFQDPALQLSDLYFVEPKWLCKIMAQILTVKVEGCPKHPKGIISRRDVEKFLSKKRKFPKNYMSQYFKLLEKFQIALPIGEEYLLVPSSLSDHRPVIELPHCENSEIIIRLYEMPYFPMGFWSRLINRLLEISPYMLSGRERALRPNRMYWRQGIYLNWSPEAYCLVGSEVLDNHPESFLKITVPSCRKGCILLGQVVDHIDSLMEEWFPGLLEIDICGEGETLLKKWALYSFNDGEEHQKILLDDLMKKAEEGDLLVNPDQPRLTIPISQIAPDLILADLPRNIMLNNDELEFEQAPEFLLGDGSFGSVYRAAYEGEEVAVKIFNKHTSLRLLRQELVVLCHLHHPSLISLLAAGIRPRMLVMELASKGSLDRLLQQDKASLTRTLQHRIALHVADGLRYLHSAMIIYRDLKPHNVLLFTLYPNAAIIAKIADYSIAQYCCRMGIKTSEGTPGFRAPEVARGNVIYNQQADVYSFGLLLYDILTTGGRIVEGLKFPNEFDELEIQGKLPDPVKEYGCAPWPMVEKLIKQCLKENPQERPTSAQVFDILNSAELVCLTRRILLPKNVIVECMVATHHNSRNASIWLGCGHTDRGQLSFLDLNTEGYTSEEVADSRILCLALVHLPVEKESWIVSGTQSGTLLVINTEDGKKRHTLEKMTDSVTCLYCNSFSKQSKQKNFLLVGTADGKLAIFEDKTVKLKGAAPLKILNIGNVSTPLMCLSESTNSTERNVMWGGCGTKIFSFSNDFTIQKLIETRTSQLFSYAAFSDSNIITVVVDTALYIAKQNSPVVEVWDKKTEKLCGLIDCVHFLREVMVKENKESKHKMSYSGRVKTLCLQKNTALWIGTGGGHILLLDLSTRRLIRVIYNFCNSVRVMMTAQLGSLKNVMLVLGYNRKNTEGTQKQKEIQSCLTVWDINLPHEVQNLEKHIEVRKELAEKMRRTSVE

Row | Ki [nM] | SMILES
1 | 0.507 | COc1cc(C(=O)N2CCOCC2)c(F)cc1Nc1ncc(C(F)(F)F)c(NC2CC2)n1 [Compound 25, [4-(4-Cyclopropylamino-5-trifluoromethyl-pyrimidin-2-ylamino)-2-fluoro-5-methoxy-phenyl]-morpholin-4-yl-methanone]
2 | 31.5 | COc1cc(C(=O)N2CCOCC2)c(F)cc1Nc1ncc(C(F)(F)F)c(N2CCC2)n1 [Compound 26, [4-(4-Azetidin-1-yl-5-trifluoromethyl-pyrimidin-2-ylamino)-2-fluoro-5-methoxy-phenyl]-morpholin-4-yl-methanone]
3 | 11.7 | CNc1nc(Nc2cc(OC)c(C(=O)NCC(C)(C)O)cc2F)ncc1C(F)(F)F [Compound 27, 5-Fluoro-N-(2-hydroxy-2-methyl-propyl)-2-methoxy-4-(4-methylamino-5-trifluoromethyl-pyrimidin-2-ylamino)-benzamide]
4 | 6.42 | CCNc1nc(Nc2cc(OC)c(C(=O)NCC(C)(C)O)cc2F)ncc1C(F)(F)F [Compound 28, 4-(4-Ethylamino-5-trifluoromethyl-pyrimidin-2-ylamino)-5-fluoro-N-(2-hydroxy-2-methyl-propyl)-2-methoxy-benzamide]
5 | 19.5 | CNc1nc(Nc2cc(OC)c(C(=O)N(C)CC(C)(C)O)cc2F)ncc1C(F)(F)F [Compound 29, 5-Fluoro-N-(2-hydroxy-2-methyl-propyl)-2-methoxy-N-methyl-4-(4-methylamino-5-trifluoromethyl-pyrimidin-2-ylamino)-benzamide]
6 | 7.07 | CCNc1nc(Nc2cc(OC)c(C(=O)N(C)CC(C)(C)O)cc2F)ncc1C(F)(F)F [Compound 30, 4-(4-Ethylamino-5-trifluoromethyl-pyrimidin-2-ylamino)-5-fluoro-N-(2-hydroxy-2-methyl-propyl)-2-methoxy-N-methyl-benzamide]
7 | 9.48 | CCNc1nc(Nc2cc(F)c(C(=O)N3CCOCC3)cc2F)ncc1C(F)(F)F [Compound 31, [4-(4-Ethylamino-5-trifluoromethyl-pyrimidin-2-ylamino)-2,5-difluoro-phenyl]-morpholin-4-yl-methanone]
8 | 3.49 | COc1cc(C(=O)N2CCOCC2)c(F)cc1Nc1ncc(C(F)(F)F)c(NC(C)C)n1 [Compound 32, [2-Fluoro-4-(4-isopropylamino-5-trifluoromethyl-pyrimidin-2-ylamino)-5-methoxy-phenyl]-morpholin-4-yl-methanone]
9 | 114 | CNc1nc(Nc2ccc(C(=O)N3CCOCC3)c(C)c2OC)ncc1C(F)(F)F [Compound 33, [3-Methoxy-2-methyl-4-(4-methylamino-5-trifluoromethyl-pyrimidin-2-ylamino)-phenyl]-morpholin-4-yl-methanone]
10 | 1.3 | CCNc1nc(Nc2cc(F)c(C(=O)N3CC4(CCO4)C3)cc2OC)ncc1C(F)(F)F [Compound 34, [4-(4-Ethylamino-5-trifluoromethyl-pyrimidin-2-ylamino)-2-fluoro-5-methoxy-phenyl]-(1-oxa-6-aza-spiro[3.3]hept-6-yl)-methanone]
11 | 4.36 | CNc1nc(Nc2cc(F)c(C(=O)NCC(C)(C)O)cc2OC)ncc1C(F)(F)F [Compound 35, 2-Fluoro-N-(2-hydroxy-2-methyl-propyl)-5-methoxy-4-(4-methylamino-5-trifluoromethyl-pyrimidin-2-ylamino)-benzamide]
12 | 4.42 | CNc1nc(Nc2cc(F)c(C(=O)N3C[C@H](F)[C@@H](F)C3)cc2OC)ncc1C(F)(F)F [Compound 36, ((3S,4S)-3,4-Difluoro-pyrrolidin-1-yl)-[2-fluoro-5-methoxy-4-(4-methylamino-5-trifluoromethyl-pyrimidin-2-ylamino)-phenyl]-methanone]
13 | 1.31 | CCNc1nc(Nc2cc(F)c(C(=O)NC)cc2OC)ncc1C(F)(F)F [Compound 37, 4-(4-Ethylamino-5-trifluoromethyl-pyrimidin-2-ylamino)-2-fluoro-5-methoxy-N-methyl-benzamide]
14 | 11.6 | CNc1nc(Nc2ccc(C(=O)NCC(C)(C)O)c(F)c2OC)ncc1C(F)(F)F [Compound 38, 2-Fluoro-N-(2-hydroxy-2-methyl-propyl)-3-methoxy-4-(4-methylamino-5-trifluoromethyl-pyrimidin-2-ylamino)-benzamide]
15 | 1.46 | CNc1nc(Nc2cc(OC)c(C(=O)N3CCC(F)(F)C3)cc2OCCF)ncc1C(F)(F)F [Compound 39, (3,3-Difluoro-pyrrolidin-1-yl)-[5-(2-fluoro-ethoxy)-2-methoxy-4-(4-methylamino-5-trifluoromethyl-pyrimidin-2-ylamino)-phenyl]-methanone]
16 | 2.76 | CNc1nc(Nc2cc(OC)c(C(=O)N3CC4(CCO4)C3)cc2Cl)ncc1C(F)(F)F [Compound 40, [5-Chloro-2-methoxy-4-(4-methylamino-5-trifluoromethyl-pyrimidin-2-ylamino)-phenyl]-(1-oxa-6-aza-spiro[3.3]hept-6-yl)-methanone]
17 | 2.99 | CCNc1nc(Nc2ccc(C(=O)N3CCOCC3)c(F)c2F)ncc1C(F)(F)F [Compound 41, [4-(4-Ethylamino-5-trifluoromethyl-pyrimidin-2-ylamino)-2,3-difluoro-phenyl]-morpholin-4-yl-methanone]
18 | 0.31 | COc1cc(C(=O)N2CCOCC2)c(C)cc1Nc1ncc(C(F)(F)F)c(NC2CC2)n1 [Compound 42, [4-(4-Cyclopropylamino-5-trifluoromethyl-pyrimidin-2-ylamino)-5-methoxy-2-methyl-phenyl]-morpholin-4-yl-methanone]
19 | 0.832 | CCNc1nc(Nc2cc(OC)c(C(=O)N3CC4(COC4)C3)cc2Cl)ncc1C(F)(F)F [Compound 43, [5-Chloro-4-(4-ethylamino-5-trifluoromethyl-pyrimidin-2-ylamino)-2-methoxy-phenyl]-(2-oxa-6-aza-spiro[3.3]hept-6-yl)-methanone]
20 | 0.31 | CCNc1nc(Nc2cc(C)c(C(=O)N3CCOCC3)cc2OC)ncc1C(F)(F)F [Compound 44, [4-(4-Ethylamino-5-trifluoromethyl-pyrimidin-2-ylamino)-5-methoxy-2-methyl-phenyl]-morpholin-4-yl-methanone]
21 | 0.31 | COc1cc(C(=O)NCC(C)(C)O)c(F)cc1Nc1ncc(C(F)(F)F)c(NC2CC2)n1 [Compound 45, 4-(4-Cyclopropylamino-5-trifluoromethyl-pyrimidin-2-ylamino)-2-fluoro-N-(2-hydroxy-2-methyl-propyl)-5-methoxy-benzamide]
22 | 3.03 | CCNc1nc(Nc2ccc(C(=O)NC(C)(C)C)cc2OC)ncc1C#N [Compound 46, N-tert-Butyl-4-(5-cyano-4-ethylamino-pyrimidin-2-ylamino)-3-methoxy-benzamide]
23 | 5.98 | CNc1nc(Nc2ccc(C(=O)N3CCOCC3)cc2OC(F)F)ncc1C(F)(F)F [Compound 47, [3-Difluoromethoxy-4-(4-methylamino-5-trifluoromethyl-pyrimidin-2-ylamino)-phenyl]-morpholin-4-yl-methanone]
24 | 3.48 | CNc1nc(Nc2cc(F)c(C(=O)N3CCOCC3)cc2OCCF)ncc1C(F)(F)F [Compound 48, [2-Fluoro-5-(2-fluoro-ethoxy)-4-(4-methylamino-5-trifluoromethyl-pyrimidin-2-ylamino)-phenyl]-morpholin-4-yl-methanone]
25 | 2.02 | CCNc1nc(Nc2cc(F)c(C(=O)N3CCOCC3)cc2OCCF)ncc1C(F)(F)F [Compound 49, [4-(4-Ethylamino-5-trifluoromethyl-pyrimidin-2-ylamino)-2-fluoro-5-(2-fluoro-ethoxy)-phenyl]-morpholin-4-yl-methanone]
